Assay results: paper PMC5400543, “Design, sythesis and evaluation of a series of 3- or 4-alkoxy substituted phenoxy derivatives as PPARs agonists” (Oncotarget, 2017)

biological target: T1, PPARα (Homo sapiens, UniProt Q07869); assay: In vitro PPARα transactivation assay (Gal4-hPPARαLBD luciferase reporter in 293E cells); type: cell-based; settings: 10^−5 M, 24 h, Csamples/Ccontrol, mean±SEM
T1 construct: pcDNA3.1-hPPARαLBD-Gal4DB; expressed in transfected cells; host or cells: 293E cells
T1 sequence (Q07869 239-466 limits assumed): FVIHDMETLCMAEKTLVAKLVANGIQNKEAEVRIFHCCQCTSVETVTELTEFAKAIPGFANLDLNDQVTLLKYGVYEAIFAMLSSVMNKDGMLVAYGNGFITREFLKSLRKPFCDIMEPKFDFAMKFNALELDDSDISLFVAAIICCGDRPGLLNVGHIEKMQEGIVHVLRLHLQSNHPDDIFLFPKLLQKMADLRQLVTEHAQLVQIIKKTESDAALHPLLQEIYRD

Structure (SMILES)	PPARα Activation Fold
CC(C)(Oc1cccc(OCCCc2ccccc2)c1)C(=O)O [6k, 2-Methyl-2-(3-(3-phenylpropoxy)phenoxy)propanoic acid]	1.50±0.08
CC(C)(Oc1ccc(OCC(=O)c2ccccc2)cc1)C(=O)O [6n, 2-Methyl-2-(4-(2-oxo-2-phenylethoxy)phenoxy)propanoic acid]	1.16±0.02
CC(C)(Oc1ccc(OCCn2ccc3ccccc32)cc1)C(=O)O [6a, 2-(4-(2-(1H-indol-1-yl)ethoxy)phenoxy)-2-methylpropanoic acid]	1.00±0.07
c1cncc(COc2cccc(OCc3nn[nH]n3)c2)c1 [10l, 3-((3-((2H-tetrazol-5-yl)methoxy)phenoxy)methyl)pyridine]	1.15±0.06
CC(C)(Oc1cccc(OCc2cccnc2)c1)C(=O)O [6l, 2-Methyl-2-(3-(pyridin-3-ylmethoxy)phenoxy)propanoic acid]	1.39±0.21
CC(C)(Oc1ccc(OCCCn2ccc3ccccc32)cc1)C(=O)O [6c, 2-(4-(3-(1H-indol-1-yl)propoxy)phenoxy)-2-methylpropanoic acid]	1.78±0.10
CC(C)(Oc1cccc(OCCCn2c3ccccc3c3ccccc32)c1)C(=O)O [6i, 2-(3-(3-(9H-carbazol-9-yl)propoxy)phenoxy)-2-methylpropanoic acid]	1.32±0.22
CC(C)(Oc1ccc(OCCCc2ccccc2)cc1)C(=O)O [6m, 2-Methyl-2-(4-(3-phenylpropoxy)phenoxy)propanoic acid]	2.01±0.22
CC(C)(Oc1cccc(OCCCn2ccc3ccccc32)c1)C(=O)O [6h, 2-(3-(3-(1H-indol-1-yl)propoxy)phenoxy)-2-methylpropanoic acid]	3.81±0.83
CC(C)(Oc1ccc(OCCn2c3ccccc3c3ccccc32)cc1)C(=O)O [6b, 2-(4-(2-(9H-carbazol-9-yl)ethoxy)phenoxy)-2-methylpropanoic acid]	0.80±0.00

Results, then the compound that gave them:

PPARα Activation Fold	Structure (SMILES)
0.89±0.19	c1cc(OCCCn2ccc3ccccc32)cc(OCc2nn[nH]n2)c1 [10i, 1-(3-(3-((2H-tetrazol-5-yl)methoxy)phenoxy)propyl)-1H-indole]
0.67±0.02	c1ccc2c(c1)ccn2CCCOc1ccc(OCc2nn[nH]n2)cc1 [10c, 1-(3-(4-((2H-tetrazol-5-yl)methoxy)phenoxy)propyl)-1H-indole]
0.80±0.02	c1cncc(COc2ccc(OCc3nn[nH]n3)cc2)c1 [10f, 3-((4-((2H-tetrazol-5-yl)methoxy)phenoxy)methyl)pyridine]
0.55±0.03	c1ccc2c(c1)c1ccccc1n2CCOc1ccc(OCc2nn[nH]n2)cc1 [10b, 9-(2-(4-((2H-tetrazol-5-yl)methoxy)phenoxy)ethyl)-9H-carbazole]

same assay, conditions: 24 h, multiple concentrations

Structure (SMILES)	EC50 [µM]
CC(C)(Oc1cccc(OCCCn2ccc3ccccc32)c1)C(=O)O [6h, 2-(3-(3-(1H-indol-1-yl)propoxy)phenoxy)-2-methylpropanoic acid]	5.3

same assay, conditions: 24 h, multiple concentrations, read-out: Cmax, concentration at maximum efficiency percentage (Max%), PPARα

Structure (SMILES)	Cmax [nM]
CC(C)(Oc1cccc(OCCCn2ccc3ccccc32)c1)C(=O)O [6h, 2-(3-(3-(1H-indol-1-yl)propoxy)phenoxy)-2-methylpropanoic acid]	10000

biological target: T2, PPARδ (Homo sapiens, UniProt Q03181); assay: cell-based; settings: not given
T2 sequence (Q03181 211-439 limits assumed): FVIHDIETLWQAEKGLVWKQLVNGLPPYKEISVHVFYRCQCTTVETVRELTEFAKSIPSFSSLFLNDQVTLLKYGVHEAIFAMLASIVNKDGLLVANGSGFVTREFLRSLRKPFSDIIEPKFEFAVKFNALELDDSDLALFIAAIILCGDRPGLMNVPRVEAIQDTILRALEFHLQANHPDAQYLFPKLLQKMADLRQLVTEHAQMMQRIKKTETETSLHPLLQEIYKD

Structure (SMILES)	EC50 [µM]
c1cncc(COc2cccc(OCc3nn[nH]n3)c2)c1 [10l, 3-((3-((2H-tetrazol-5-yl)methoxy)phenoxy)methyl)pyridine]	0.0273
CC(C)(Oc1cccc(OCc2cccnc2)c1)C(=O)O [6l, 2-Methyl-2-(3-(pyridin-3-ylmethoxy)phenoxy)propanoic acid]	0.0019

biological target: T3, PPARγ (Homo sapiens, UniProt P37231); assay: In vitro PPARγ transactivation assay (Gal4-hPPARγLBD luciferase reporter in 293E cells); settings: 10^−5 M, 24 h, Csamples/Ccontrol, mean±SEM
T3 sequence (P37231 238-503 limits assumed): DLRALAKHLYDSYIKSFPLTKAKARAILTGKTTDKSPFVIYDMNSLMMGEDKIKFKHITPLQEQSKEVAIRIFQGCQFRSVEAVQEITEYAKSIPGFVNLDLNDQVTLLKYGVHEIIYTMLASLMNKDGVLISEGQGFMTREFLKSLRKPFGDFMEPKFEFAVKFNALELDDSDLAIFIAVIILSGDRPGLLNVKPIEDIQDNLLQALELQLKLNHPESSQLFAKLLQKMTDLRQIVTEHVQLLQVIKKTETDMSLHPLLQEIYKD

Structure (SMILES)	PPARγ Activation Fold
CC(C)(Oc1cccc(OCCCc2ccccc2)c1)C(=O)O [6k, 2-Methyl-2-(3-(3-phenylpropoxy)phenoxy)propanoic acid]	1.62±0.11
CC(C)(Oc1ccc(OCC(=O)c2ccccc2)cc1)C(=O)O [6n, 2-Methyl-2-(4-(2-oxo-2-phenylethoxy)phenoxy)propanoic acid]	1.31±0.12
CC(C)(Oc1ccc(OCCn2ccc3ccccc32)cc1)C(=O)O [6a, 2-(4-(2-(1H-indol-1-yl)ethoxy)phenoxy)-2-methylpropanoic acid]	1.21±0.09
c1cncc(COc2cccc(OCc3nn[nH]n3)c2)c1 [10l, 3-((3-((2H-tetrazol-5-yl)methoxy)phenoxy)methyl)pyridine]	1.07±0.03
CC(C)(Oc1cccc(OCc2cccnc2)c1)C(=O)O [6l, 2-Methyl-2-(3-(pyridin-3-ylmethoxy)phenoxy)propanoic acid]	1.34±0.01
CC(C)(Oc1ccc(OCCCn2ccc3ccccc32)cc1)C(=O)O [6c, 2-(4-(3-(1H-indol-1-yl)propoxy)phenoxy)-2-methylpropanoic acid]	1.40±0.18
CC(C)(Oc1cccc(OCCCn2c3ccccc3c3ccccc32)c1)C(=O)O [6i, 2-(3-(3-(9H-carbazol-9-yl)propoxy)phenoxy)-2-methylpropanoic acid]	2.87±0.33
CC(C)(Oc1ccc(OCCCc2ccccc2)cc1)C(=O)O [6m, 2-Methyl-2-(4-(3-phenylpropoxy)phenoxy)propanoic acid]	2.26±0.18
CC(C)(Oc1cccc(OCCCn2ccc3ccccc32)c1)C(=O)O [6h, 2-(3-(3-(1H-indol-1-yl)propoxy)phenoxy)-2-methylpropanoic acid]	1.57±0.25
CC(C)(Oc1ccc(OCCn2c3ccccc3c3ccccc32)cc1)C(=O)O [6b, 2-(4-(2-(9H-carbazol-9-yl)ethoxy)phenoxy)-2-methylpropanoic acid]	1.19±0.00

The next lines start with the values.

PPARγ Activation Fold	Structure (SMILES)
1.19±0.09	c1cc(OCCCn2ccc3ccccc32)cc(OCc2nn[nH]n2)c1 [10i, 1-(3-(3-((2H-tetrazol-5-yl)methoxy)phenoxy)propyl)-1H-indole]
0.96±0.01	c1ccc2c(c1)ccn2CCCOc1ccc(OCc2nn[nH]n2)cc1 [10c, 1-(3-(4-((2H-tetrazol-5-yl)methoxy)phenoxy)propyl)-1H-indole]
1.24±0.07	c1cncc(COc2ccc(OCc3nn[nH]n3)cc2)c1 [10f, 3-((4-((2H-tetrazol-5-yl)methoxy)phenoxy)methyl)pyridine]
1.26±0.22	c1ccc2c(c1)c1ccccc1n2CCOc1ccc(OCc2nn[nH]n2)cc1 [10b, 9-(2-(4-((2H-tetrazol-5-yl)methoxy)phenoxy)ethyl)-9H-carbazole]

biological target: T2, PPARδ; assay: In vitro PPARδ transactivation assay (Gal4-hPPARδLBD luciferase reporter in 293E cells); settings: 10^−5 M, 24 h, Csamples/Ccontrol, mean±SEM

Structure (SMILES)	PPARδ Activation Fold
CC(C)(Oc1cccc(OCCCc2ccccc2)c1)C(=O)O [6k, 2-Methyl-2-(3-(3-phenylpropoxy)phenoxy)propanoic acid]	0.99±0.22
CC(C)(Oc1ccc(OCC(=O)c2ccccc2)cc1)C(=O)O [6n, 2-Methyl-2-(4-(2-oxo-2-phenylethoxy)phenoxy)propanoic acid]	1.24±0.06
CC(C)(Oc1ccc(OCCn2ccc3ccccc32)cc1)C(=O)O [6a, 2-(4-(2-(1H-indol-1-yl)ethoxy)phenoxy)-2-methylpropanoic acid]	0.97±0.09
c1cncc(COc2cccc(OCc3nn[nH]n3)c2)c1 [10l, 3-((3-((2H-tetrazol-5-yl)methoxy)phenoxy)methyl)pyridine]	9.56±2.50
CC(C)(Oc1cccc(OCc2cccnc2)c1)C(=O)O [6l, 2-Methyl-2-(3-(pyridin-3-ylmethoxy)phenoxy)propanoic acid]	6.60±0.90
CC(C)(Oc1ccc(OCCCn2ccc3ccccc32)cc1)C(=O)O [6c, 2-(4-(3-(1H-indol-1-yl)propoxy)phenoxy)-2-methylpropanoic acid]	0.94±0.02
CC(C)(Oc1cccc(OCCCn2c3ccccc3c3ccccc32)c1)C(=O)O [6i, 2-(3-(3-(9H-carbazol-9-yl)propoxy)phenoxy)-2-methylpropanoic acid]	0.88±0.13
CC(C)(Oc1ccc(OCCCc2ccccc2)cc1)C(=O)O [6m, 2-Methyl-2-(4-(3-phenylpropoxy)phenoxy)propanoic acid]	1.73±0.03
CC(C)(Oc1cccc(OCCCn2ccc3ccccc32)c1)C(=O)O [6h, 2-(3-(3-(1H-indol-1-yl)propoxy)phenoxy)-2-methylpropanoic acid]	0.78±0.15
CC(C)(Oc1ccc(OCCn2c3ccccc3c3ccccc32)cc1)C(=O)O [6b, 2-(4-(2-(9H-carbazol-9-yl)ethoxy)phenoxy)-2-methylpropanoic acid]	1.23±0.07

The remaining lines, values ahead:

PPARδ Activation Fold	Structure (SMILES)
0.77±0.01	c1cc(OCCCn2ccc3ccccc32)cc(OCc2nn[nH]n2)c1 [10i, 1-(3-(3-((2H-tetrazol-5-yl)methoxy)phenoxy)propyl)-1H-indole]
1.01±0.08	c1ccc2c(c1)ccn2CCCOc1ccc(OCc2nn[nH]n2)cc1 [10c, 1-(3-(4-((2H-tetrazol-5-yl)methoxy)phenoxy)propyl)-1H-indole]
1.02±0.09	c1cncc(COc2ccc(OCc3nn[nH]n3)cc2)c1 [10f, 3-((4-((2H-tetrazol-5-yl)methoxy)phenoxy)methyl)pyridine]
1.39±0.21	c1ccc2c(c1)c1ccccc1n2CCOc1ccc(OCc2nn[nH]n2)cc1 [10b, 9-(2-(4-((2H-tetrazol-5-yl)methoxy)phenoxy)ethyl)-9H-carbazole]

same assay, conditions: read-out: Cmax, concentration at maximum efficiency percentage (Max%), PPARδ, 24 h, multiple concentrations

Structure (SMILES)	Cmax [nM]
c1cncc(COc2cccc(OCc3nn[nH]n3)c2)c1 [10l, 3-((3-((2H-tetrazol-5-yl)methoxy)phenoxy)methyl)pyridine]	100
CC(C)(Oc1cccc(OCc2cccnc2)c1)C(=O)O [6l, 2-Methyl-2-(3-(pyridin-3-ylmethoxy)phenoxy)propanoic acid]	100
